Assay results reported in ChEMBL document CHEMBL1135324, “Quaternary salts of E2020 analogues as acetylcholinesterase inhibitors for the reversal of neuromuscular block” (Bioorg Med Chem Lett, 2002).
pEC50, pIC50: −log10 of the molar value.

Legend:
[1] = Tested for water solubility of the compound; format: ADME; conditions: read-out: S
[2] = biological target: T1, Acetylcholinesterase (Homo sapiens, UniProt P22303)
[3] = biological target: T1, Acetylcholinesterase; remark: listed apart in the source
Description: In vitro reversal of vecuronium-induced neuromuscular block in guinea pig hemi-diaphragm.

[4] = tested on: Felis catus; assay: Mean arterial pressure change was detected in anaesthetised cats on administration of the compound; format: functional, Artery; further: test concentration or dose not given here
[5] = tested on: Felis catus; assay: Change in response to vagal stimulation was detected in anaesthetised cats on administration of the compound; format: functional; further: test concentration or dose not given here
[6] = tested on: Felis catus; assay: Effective dose required for the reversal of vecuronium-induced neuromuscular block in-vivo in Chloaralose anaesthetised cats; format: functional
[7] = tested on: Felis catus; assay: Maximum reversal of vecuronium-induced neuromuscular block in-vivo in anaesthetised cats; format: functional
[8] = tested on: Felis catus; assay: Change in heart rate was detected in anaesthetised cats on administration of the compound; format: functional; further: test concentration or dose not given here
[9] = tested on: Felis catus; assay: Maximum reversal of vecuronium-induced neuromuscular block in-vivo in anaesthetised cats at 1.28 umol/kg; format: functional
[10] = biological target: T1, Acetylcholinesterase; assay: In vitro inhibition of human recombinant AChE.

T1 sequence (P22303 whole entry): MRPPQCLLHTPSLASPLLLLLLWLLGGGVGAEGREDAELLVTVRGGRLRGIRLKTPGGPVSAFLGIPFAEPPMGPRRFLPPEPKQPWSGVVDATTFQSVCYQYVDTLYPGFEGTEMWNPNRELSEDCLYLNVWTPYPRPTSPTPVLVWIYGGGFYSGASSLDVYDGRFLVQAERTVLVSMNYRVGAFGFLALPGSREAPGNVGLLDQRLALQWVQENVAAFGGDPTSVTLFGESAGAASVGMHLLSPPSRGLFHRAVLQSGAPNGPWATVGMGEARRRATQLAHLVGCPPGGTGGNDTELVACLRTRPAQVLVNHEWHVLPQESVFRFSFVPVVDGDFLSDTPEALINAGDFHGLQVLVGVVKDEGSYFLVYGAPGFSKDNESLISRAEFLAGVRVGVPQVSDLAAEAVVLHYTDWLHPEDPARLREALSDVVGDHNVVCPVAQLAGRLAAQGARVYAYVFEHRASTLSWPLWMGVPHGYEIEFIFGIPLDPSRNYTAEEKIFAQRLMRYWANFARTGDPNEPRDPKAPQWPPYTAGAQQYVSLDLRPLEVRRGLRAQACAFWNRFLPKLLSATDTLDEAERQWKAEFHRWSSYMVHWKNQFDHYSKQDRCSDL

SMILES | solubility [1] [µg/mL] | pIC50 [2] | pEC50 [3] | MAP [4] [delta %] | Vagus [5] [delta %] | ED50 [6] [µmol/kg] | HR [8] [delta %] | other results
C[N+]1(Cc2ccccc2)CCC(CCC(=O)c2ccc3c(c2)OCO3)CC1 (configuration not stated) | 500 | 6.62 | 5.77 |  |  |  |  | 
COc1cc2c(cc1OC)C(=O)C(C(O)c1cc[n+](Cc3ccccc3)cc1)C2 (configuration not stated) |  |  | 5.73 |  |  |  |  | 
COc1cc2c(cc1OC)C(=O)C(CC1CCN(Cc3ccccc3)CC1)C2 (configuration not stated) [DONEPEZIL] |  |  |  | -12 | 14 | 0.53 | -12 | Max rev [7]: 106%
COc1cc2c(cc1OC)C(=O)C(C(O)C1CC[N+](Cc3ccccc3)(Cc3ccccc3)CC1)C2 (configuration not stated) |  |  | 4.36 |  |  |  |  | 
COc1cc2c(cc1OC)C(=O)C(C(O)C1CC[N+](C)(Cc3ccccc3)CC1)C2 (configuration not stated) |  |  | 5.84 | -22 | 18 | 0.21 | -12 | Max rev [9]: 109%
CC1=CC2Cc3[nH]c(=O)ccc3C3(C1)C2CCCN3C (configuration not stated) |  | < 4.00 | < 5.00 |  |  |  |  | 
COc1ccc2c3c1OC1C[C@@H](O)C=C[C@@]31CC[N+](C)(C)C2 (some centres not stated) |  | ~6.30 | 6.20 | 16 | 80 | 0.1 | -5 | Max rev [7]: 130%
COc1cc2c(cc1OC)C(=O)[C@@H]([C@H](O)C1CC[N+](C)(Cc3ccccc3)CC1)C2 (some centres not stated) |  |  | 6.05 |  |  |  |  | 
COc1cc2c(cc1OC)C(=O)[C@@H]([C@@H](O)C1CC[N+](C)(Cc3ccccc3)CC1)C2 (some centres not stated) |  |  | 5.57 |  |  |  |  | 
COc1cc2cc(C(=O)CCC3CC[N+](C)(Cc4ccccc4)CC3)sc2cc1OC (configuration not stated) | 2000 | 8.10 | 7.72 |  |  |  |  | 
C[N+]1(Cc2ccccc2)CCC(CCC(=O)c2ccc3c(c2)NCCCC3)CC1 (configuration not stated) |  | > 6.30 | 6.48 | -6 | 10 | 0.15 | 4 | Max rev [7]: 140%
O=C(CCC1CCN(Cc2ccccc2)CC1)c1ccc2c(c1)NCCCC2 [ZANAPEZIL] |  |  |  | -11 | 8 | 3.7 | -5 | Max rev [7]: 68%
C[N@+]1(Cc2ccccc2)CC[C@H](CCC(=O)c2ccc3c(c2)CCO3)CC1 | > 10000 | 7.18 |  |  |  |  |  | 
COc1cc2cc(C(=O)CCC3CC[N+](C)(Cc4ccccc4)CC3)n(C)c2cc1OC (configuration not stated) | 1200 | 6.92 | 5.80 |  |  |  |  | 
C[N+]1(Cc2ccccc2)CCC(CCC(=O)c2ccc3c(c2)CCCCO3)CC1 (configuration not stated) | 5000 | 6.86 |  |  |  |  |  | 
COc1cc2c(cc1OC)C(=O)C(Cc1cc[n+](Cc3ccccc3)cc1)C2 (configuration not stated) |  |  | 7.00 |  |  |  |  | 
C[N+]1(Cc2ccccc2)CCC(CCC(=O)c2ccc3c(c2)OCCO3)CC1 (configuration not stated) | < 500 | 7.00 | < 5.52 |  |  |  |  | 
C[N+]1(Cc2ccccc2)CCC(CCC(=O)c2ccc3c(c2)CCO3)CC1 (configuration not stated) | 1500 | 7.77 | 7.05 |  |  |  |  | 
Cc1cc(C(=O)CCC2CC[N+](C)(Cc3ccccc3)CC2)nn1-c1ccccc1 (configuration not stated) | 2000 | 7.66 | 6.37 |  |  |  |  | 
COc1ccc2cc(C(=O)CCC3CC[N+](C)(Cc4ccccc4)CC3)ccc2c1 (configuration not stated) | < 1000 | 7.30 | 6.28 |  |  |  |  | 
COc1cc2c(cc1OC)C(=O)C(CC1CC[N+](C)(Cc3ccccc3)CC1)C2 (configuration not stated) |  | 7.60 | 7.00 | -22 | 37 | ~0.06 | 11 | Max rev [7]: 131%
CC1=C[C@H]2Cc3[nH]c(=O)ccc3[C@]3(C1)NCCC[C@H]23 [HUPERZINE B] |  |  | 7.72 | -17 | 102 | 0.08 | -8 | pIC50 [10]: 7.52; Max rev [7]: 156%
COc1cc2c(cc1OC)C(=O)/C(=C/c1cc[n+](Cc3ccccc3)cc1)C2 |  |  | 7.92 |  |  |  |  | 
